Data published in ChEMBL document CHEMBL3603809, “New Frontiers in Selective Human MAO-B Inhibitors” (J Med Chem, 2015).

What was measured:
[1] = molecular target: T1, Amine oxidase [flavin-containing] B (Homo sapiens, UniProt P27338); experiment: Inhibition of human MAOB
T1 sequence (P27338 whole entry): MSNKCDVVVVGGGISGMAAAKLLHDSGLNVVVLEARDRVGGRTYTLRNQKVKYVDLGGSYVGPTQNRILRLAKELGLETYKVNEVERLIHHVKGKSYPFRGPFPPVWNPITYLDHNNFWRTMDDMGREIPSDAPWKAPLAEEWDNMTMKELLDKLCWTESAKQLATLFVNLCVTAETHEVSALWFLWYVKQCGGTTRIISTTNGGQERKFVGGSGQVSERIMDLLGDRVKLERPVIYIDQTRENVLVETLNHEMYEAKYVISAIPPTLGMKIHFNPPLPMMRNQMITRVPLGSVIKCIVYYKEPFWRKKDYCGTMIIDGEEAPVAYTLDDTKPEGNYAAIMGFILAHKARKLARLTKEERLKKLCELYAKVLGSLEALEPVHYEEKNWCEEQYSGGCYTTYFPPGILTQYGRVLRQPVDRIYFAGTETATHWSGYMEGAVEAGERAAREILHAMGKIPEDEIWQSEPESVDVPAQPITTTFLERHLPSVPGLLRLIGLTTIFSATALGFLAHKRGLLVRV

[2] = Inhibition of baboon MAOB; design: species or system Papio
Homo sapiens = species on record: Homo sapiens; experiment: Selectivity index, ratio of Ki for human MAOA to Ki for human MAOB
[3] = molecular target: T1, Amine oxidase [flavin-containing] B; experiment: Competitive inhibition of human liver MAOB expressed in Pichia pastoris

| Structure (SMILES) | Ki [1] | further results |
| --- | --- | --- |
| C#CN(C)Cc1ccc(C(=O)NC2CC(C)(C)N([O])C(C)(C)C2)cc1 | 22000 nM |  |
| Cn1c(=O)c2c(nc(/C=C/C=C/c3cccc(Br)c3)n2C)n(C)c1=O |  | Ki [2]: 17 nM |
| CN(C)c1ccc(/N=C/c2ccccn2)cc1 |  | Ratio Ki (Homo sapiens): 3 |
| Cn1c(=O)c2c(nc(OCc3ccc(Br)cc3)n2C)n(C)c1=O | 62 nM |  |
| Cn1c(=O)c2c(nc(OCc3cccc(Br)c3)n2C)n(C)c1=O | 68 nM |  |
| C#CCN(C)c1nc2nc(CCC3CCN(Cc4ccccc4)CC3)ccc2c(-c2ccccc2)c1C#N | 32 nM | Ratio Ki (Homo sapiens): > 3 |
| C(=C\Cc1ccccc1)/Cc1ccccc1 |  | Ki [3]: 35 nM |
